Experimental data taken from patent publication US20260232812A1, “BIFUNCTIONAL MOLECULES FOR TARGETED PROTEIN DEGRADATION” (Amphista Therapeutics Limited, priority 2022, published 2026).

What was measured:
Format in all cases: cell-based
SMARCA2 = target: T1, SMARCA2 (Homo sapiens, UniProt P51531); test: SMARCA2 degradation, HeLa SMARCA2 HiBiT cells (Assay Protocol 1); details: 24 hours after compound addition
T1 construct: a HiBiT tag knocked in at the 3′ end of SMARCA2; host or cells: HeLa SMARCA2 HiBiT knock-in cells
Protocol: Hela cells with a HiBiT tag knocked in at the 3′ end of SMARCA2 were purchased from Promega (Custom product) (1). HeLa SMARCA2 HiBiT transfected cells were treated with compounds at indicated concentrations using the FlexDrop IQ (Perkin Elmer). 24 hours after compound additions abundance of HiBiT tagged protein was quantified using NanoGlo HiBiT lytic detection system (Promega, N3050). Cell viability was measured using Cell Titre Glow cell viability assay (Promega, G9243). In each case luminescence was measured on a Pherastar platereader.

BRD9 [1] = target: T2, BRD9 (Homo sapiens, UniProt Q9H8M2); test: Assay Protocol 1 - Degradation of HiBit-BRD9 in HEK293; details: titration up to 10 μM; for Dmax: HEK293, Assay Protocol 1: HiBit-BRD9 in HEK293, 6 h; for DC50: Assay Protocol 1: HiBit-BRD9 in HEK293, 6 h
T2 sequence (Q9H8M2 1-597): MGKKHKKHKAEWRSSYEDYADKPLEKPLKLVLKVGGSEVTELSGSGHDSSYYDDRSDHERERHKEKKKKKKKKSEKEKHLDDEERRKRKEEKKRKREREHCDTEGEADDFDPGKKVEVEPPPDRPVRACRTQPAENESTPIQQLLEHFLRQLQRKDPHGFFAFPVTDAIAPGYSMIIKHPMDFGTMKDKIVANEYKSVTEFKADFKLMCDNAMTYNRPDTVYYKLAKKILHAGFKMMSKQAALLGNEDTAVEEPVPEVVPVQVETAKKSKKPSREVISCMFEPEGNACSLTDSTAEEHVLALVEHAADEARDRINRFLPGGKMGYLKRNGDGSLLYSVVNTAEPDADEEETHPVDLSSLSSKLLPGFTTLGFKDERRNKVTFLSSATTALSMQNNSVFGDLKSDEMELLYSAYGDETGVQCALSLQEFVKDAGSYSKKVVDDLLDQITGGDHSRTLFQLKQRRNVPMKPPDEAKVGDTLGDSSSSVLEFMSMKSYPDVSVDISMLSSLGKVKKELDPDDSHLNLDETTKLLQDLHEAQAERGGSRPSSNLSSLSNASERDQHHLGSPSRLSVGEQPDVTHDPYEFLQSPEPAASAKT
Protocol: Assay Protocol 1—Degradation of HiBit-BRD9 in HEK293
HEK293 stably expressing LgBit and containing a HiBit insertion for BRD9 were plated in 384-well tissue culture plates at a density of 8×10^3 per well in a volume of 36 μL and incubated overnight at 37° C. and 5% CO2. Wells were treated with test compounds (11 pt titration up to 10 μM) for 6 h prior to addition of Nano-Glo® Hibit Lytic buffer (1:50 substrate and 1:100 LgBit protein) and reading on a PheraSTAR. Degradation data was plotted and analysed using Prism 8 (Graphpad).

BRD9 [2] = target: T2, BRD9; test: Assay Protocol 2 - Degradation of BRD9 (IF) in MV4-11 cells; set-up: host or cells: MV4-11; details: Assay Protocol 2: BRD9 immunofluorescence, 24 hours
Protocol: Assay Protocol 2—Degradation of BRD9 (IF)
A suspension of MV4-11 cells (ATCC CRL-9591) was prepared in phenol red-free assay media (IMDM Thermo Scientific 21056023+10% FBS ATCC 302025) and cells were seeded at 20,000 cells per well (45 μL) in sterile black poly-d-lysine coated 384 well plates (Greiner 781948). Compounds were prepared at 1000× final concentration in DMSO, diluted 1:100 in assay media, and 5 μL compound was added to each well of the cell plate. Cells were incubated for 24 hours at 37° C. with 5% CO2. All the following incubations for immunofluorescence staining were at room temperature. 15 μL of 16% PFA was added to each well (3.7% final concentration) and the cells were fixed for 15 min then washed twice with DPBS. Cells were permeabilised with 0.1% Triton X-100 for 10 min, Triton X-100 was removed, then blocked with 1% BSA in DPBS for 1 hour. Cells were stained with 25 μL anti-BRD9 E4Q3F antibody (CST 48306) diluted 1:25600 in 1% BSA in DPBS for 2-3 hours. Wells were washed twice with DPBS then incubated with 25 μL of 1% BSA containing a 1:1000 dilution of Anti-rabbit Alexa Fluor™ 647 secondary antibody (Thermo Scientific A^21244) and 1 μg/mL Hoechst nuclear counter stain (Abcam ab228551) for 1 hour. Wells were washed twice with DPBS prior to imaging on a Perkin Elmer Operetta CLS with 10× air lens. Images were processed using Harmony High-Content Imaging and Analysis Software (Perkin Elmer) and the mean contrast ratio of Alexa Fluor™ 647 in central nuclei was used to quantify BRD9 protein levels. Data was further analysed using Dotmatics software and % BRD9 remaining was calculated by normalisation to average data from high and low control wells (cells treated with DMSO or 100 nM CFT-8634 respectively).

T1 sequence (P51531 whole entry): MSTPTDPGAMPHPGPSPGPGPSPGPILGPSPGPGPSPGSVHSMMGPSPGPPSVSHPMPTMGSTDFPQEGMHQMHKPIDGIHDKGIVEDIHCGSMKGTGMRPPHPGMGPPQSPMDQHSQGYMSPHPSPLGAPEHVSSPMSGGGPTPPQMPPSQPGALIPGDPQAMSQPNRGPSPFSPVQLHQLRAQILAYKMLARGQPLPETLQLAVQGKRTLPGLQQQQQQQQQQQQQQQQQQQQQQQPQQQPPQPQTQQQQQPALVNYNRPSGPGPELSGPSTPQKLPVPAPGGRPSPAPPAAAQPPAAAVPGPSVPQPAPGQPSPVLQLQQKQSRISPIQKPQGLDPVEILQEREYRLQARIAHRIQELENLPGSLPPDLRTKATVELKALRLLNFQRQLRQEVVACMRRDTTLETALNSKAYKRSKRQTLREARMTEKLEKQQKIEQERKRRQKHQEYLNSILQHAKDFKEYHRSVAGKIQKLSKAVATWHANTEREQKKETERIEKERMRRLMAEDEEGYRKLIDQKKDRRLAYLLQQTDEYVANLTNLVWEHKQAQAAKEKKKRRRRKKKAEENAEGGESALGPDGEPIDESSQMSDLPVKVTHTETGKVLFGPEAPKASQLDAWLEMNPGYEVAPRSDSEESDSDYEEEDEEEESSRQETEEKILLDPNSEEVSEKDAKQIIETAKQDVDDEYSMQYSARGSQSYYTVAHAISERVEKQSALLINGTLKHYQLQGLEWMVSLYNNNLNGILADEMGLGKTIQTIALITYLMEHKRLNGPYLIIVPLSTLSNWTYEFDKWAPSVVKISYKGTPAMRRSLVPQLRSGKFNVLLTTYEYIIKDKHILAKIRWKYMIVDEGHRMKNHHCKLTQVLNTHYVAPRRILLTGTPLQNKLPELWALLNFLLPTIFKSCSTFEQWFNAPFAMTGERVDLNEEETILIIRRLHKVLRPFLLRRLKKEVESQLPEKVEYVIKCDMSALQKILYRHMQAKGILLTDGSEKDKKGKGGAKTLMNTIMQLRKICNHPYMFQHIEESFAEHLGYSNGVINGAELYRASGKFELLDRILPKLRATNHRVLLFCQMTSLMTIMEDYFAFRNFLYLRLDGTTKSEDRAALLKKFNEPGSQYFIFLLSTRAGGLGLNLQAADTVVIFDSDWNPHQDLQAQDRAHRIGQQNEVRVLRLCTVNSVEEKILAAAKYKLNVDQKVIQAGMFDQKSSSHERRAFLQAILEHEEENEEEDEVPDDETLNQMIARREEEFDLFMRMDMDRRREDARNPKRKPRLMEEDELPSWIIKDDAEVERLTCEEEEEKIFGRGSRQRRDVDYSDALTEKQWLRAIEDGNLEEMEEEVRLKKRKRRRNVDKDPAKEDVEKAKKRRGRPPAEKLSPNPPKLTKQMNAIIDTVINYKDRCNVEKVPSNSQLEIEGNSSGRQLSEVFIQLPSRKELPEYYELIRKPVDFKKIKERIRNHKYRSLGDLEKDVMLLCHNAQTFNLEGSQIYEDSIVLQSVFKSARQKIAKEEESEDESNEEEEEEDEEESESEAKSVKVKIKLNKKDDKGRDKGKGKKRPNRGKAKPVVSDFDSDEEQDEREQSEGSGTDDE

SMILES | Dmax (SMARCA2) | DC50 (BRD9 [2]) | Dmax (BRD9 [2]) | DC50 (BRD9 [1]) | also measured
CC(C)(C)/C=C(\C#N)C(=O)N1CCN(CC(=O)N2CCc3[nH]c4nnc(-c5ccccc5O)cc4c3C2)CC1 [SMARCA2e] | 50 to 65% | – | – | – | –
COc1ccc(C2CC(C(=O)N[C@@H]3CCCN(c4cc(-c5ccccc5O)nnc4N)C3)CN(C(=O)/C(C#N)=C/c3ccn(C)n3)C2)cc1 (some centres unmarked) [SMARCA2i] | 50 to 65% | – | – | – | –
COc1cc(-c2cn(C)c(=O)c(C)c2C)cc(OC)c1CN1CCN(C(=O)[C@@H]2CN(C(=O)/C(C#N)=C/c3nccs3)C[C@H]2c2ccccc2)CC1 [BRD9ai] | – | – | 50 to 70% | – | Dmax (BRD9 [1]): 30 to 50%
CC(C)(C)/C=C(\C#N)C(=O)N1CCN(CC(=O)N[C@@H]2CCCN(c3cc(-c4ccccc4O)nnc3N)C2)CC1 [SMARCA2b] | 50 to 65% | – | – | – | –
CC(C)[C@@H]1CN(C(=O)/C(C#N)=C/C(C)(C)C)C[C@H]1C(=O)N[C@@H]1CCCN(c2cc(-c3ccccc3O)nnc2N)C1 [SMARCA2j] | 65 to 80% | – | – | – | –
CC(C)C1CC(C(=O)N[C@@H]2CCCN(c3cc(-c4ccccc4O)nnc3N)C2)CN(C(=O)/C(C#N)=C/C(C)(C)C)C1 (some centres unmarked) [SMARCA2f] | 50 to 65% | – | – | – | –
COc1cc(-c2cn(C)c(=O)c(C)c2C)cc(OC)c1CN1CC2CC(C1)N2C(=O)/C(C#N)=C/c1nccs1 (mixture of isomers) [BRD9l, (E/Z)-2-(3-(2,6-dimethoxy-4-(1,4,5-trimethyl-6-oxo-1,6-dihydropyridin-3-yl)benzyl)-3,6-diazabicyclo[3.1.1]heptane-6-carbonyl)-3-(thiazol-2-yl)acrylonitrile] | – | – | 30 to 50% | > 200 nM | –
COc1cc(-c2cn(C)c(=O)c(C)c2C)cc(OC)c1CN1CC2CCC(C1)N2C(=O)/C(C#N)=C/c1nccs1 (mixture of isomers) [BRD9q, (E/Z)-2-(3-(2,6-dimethoxy-4-(1,4,5-trimethyl-6-oxo-1,6-dihydropyridin-3-yl)benzyl)-3,8-diazabicyclo[3.2.1]octane-8-carbonyl)-3-(thiazol-2-yl)acrylonitrile] | – | > 200 nM | 50 to 70% | > 200 nM | –
CC(C)(C)/C=C(\C#N)C(=O)N1C[C@@H](C(=O)N[C@@H]2CCCN(c3cc(-c4ccccc4O)nnc3N)C2)[C@H](C2CCCCC2)C1 [SMARCA2h] | 65 to 80% | – | – | – | –
COc1cc(-c2cn(C)c(=O)c(C)c2C)cc(OC)c1CN1C2CC1CN(C(=O)/C(C#N)=C/c1cccc(Br)n1)C2 (mixture of isomers) [BRD9o, (E/Z)-3-(6-bromopyridin-2-yl)-2-(6-(2,6-dimethoxy-4-(1,4,5-trimethyl-6-oxo-1,6-dihydropyridin-3-yl)benzyl)-3,6-diazabicyclo[3.1.1]heptane-3-carbonyl)acrylonitrile] | – | < 25 nM | ≥ 70% | < 25 nM | –

More lines, main results first:

Dmax (SMARCA2) | DC50 (BRD9 [2]) | SMILES | Dmax (BRD9 [2]) | DC50 (BRD9 [1]) | also measured
65 to 80% | – | CC(C)C1CC(C(=O)N[C@@H]2CCCN(c3cc(-c4ccccc4O)nnc3N)C2)CN(C(=O)/C(C#N)=C/c2nccs2)C1 (some centres unmarked) [SMARCA2g] | – | – | –
– | < 25 nM | COc1ccc([C@@H]2CN(C(=O)/C(C#N)=C/c3nccs3)C[C@H]2C(=O)N2CCN(Cc3c(OC)cc(-c4cn(C)c(=O)c(C)c4C)cc3OC)CC2)cc1 [BRD9ah] | ≥ 70% | – | Dmax (BRD9 [1]): 30 to 50%
– | < 25 nM | COc1cc(-c2cn(C)c(=O)c(C)c2C)cc(OC)c1CN(C)C1CCN(C(=O)/C(C#N)=C/c2cccc(Br)n2)CC1 [BRD9z, (E/Z)-3-(6-bromopyridin-2-yl)-2-(4-((2,6-dimethoxy-4-(1,4,5-trimethyl-6-oxo-1,6-dihydropyridin-3-yl)benzyl)(methyl)amino)piperidine-1-carbonyl)acrylonitrile] | – | < 25 nM | Dmax (BRD9 [1]): ≥ 70%
– | < 25 nM | COc1cc(-c2cn(C)c(=O)c(C)c2C)cc(OC)c1CN1CCN(C(=O)/C(C#N)=C/C(C)(C)C)CC1 [BRD9a, (E/Z)-2-(4-(2,6-dimethoxy-4-(1,4,5-trimethyl-6-oxo-1,6-dihydropyridin-3-yl)benzyl)piperazine-1-carbonyl)-4,4-dimethylpent-2-enenitrile] | – | 25 to 200 nM | –
50 to 65% | – | N#C/C(=C\c1nccs1)C(=O)N1CCCC(C(=O)N[C@@H]2CCCN(c3cc(-c4ccccc4O)nnc3N)C2)C1 (some centres unmarked) [SMARCA2l] | – | – | –
